# Data reported in patent US20050025805A1, “Osmium compounds for reduction of adverse inflammation” (priority 2003, published 2005).
# Like-named read-outs stand apart in the source and are kept apart here.
# Tests used:
# [1] = tested on: Phorbol Myristate Stimulated Murine Peritoneal Macrophages; details: cited from earlier work
# [2] = Neta et al. J. Phys. Chem. 1980; cited from earlier work
# [3] = Pulse radiolysis: decay of carbonate radical CO3.-, absorbance at 600 nm; assay type: biochemical; details: 0.6 M carbonate
# Procedure: Methods. Pulse radiolysis experiments were carried out using a 5-MeV Varian 7715 linear accelerator (0.05-1.5 μs electron pulses, 200 mA current). All measurements were performed at room temperature in a 2-cm spectrosil cell, with three light passes (optical path length 6.1 cm). The formation and decay kinetics of the CO3− radical were tracked by measuring its absorption at 600 nm using ε600=1860 M^−1cm^−1.
# Carbonate radical was generated by irradiating N2O-saturated (˜25 mM) aqueous solutions containing 0.1-0.6 M sodium carbonate (pKa(HCO3^−)=10, I=0.5 M) at pH 10.0 by reaction sequence 18-20 (the species radiation yields are in parentheses): […]
# [4] = Pulse radiolysis: catalysis of the decay (dismutation) of O2.-, absorbance at 260 nm; assay type: biochemical; details: for kcat (in words): oxygenated solution; for kobs at the plateau: 10 μM O2.-, pH 7.25; for kcat at the plateau after repetitive pulsing: 20 mM formate, 2.4 mM phosphate pH 7.25
# Procedure: Pulse radiolysis experiments were carried out with a Varian (Palo Alto, Calif.) 7715 linear accelerator with 5 MeV electron pulses of 1.5 μs duration. The light source of the analyzing beam was a 200 W xenon lamp. The absorption spectra were measured were at room temperature in a 2 cm Spectrosil® cell, the beam passing the cell three times, for an optical path length of 6.1 cm. The dose was 6-19.4 Gy per pulse, as determined from the absorption of the superoxide ion, using G(O2.^−)=6.1 and ε260=1940 M^−1cm^−1, in pH 7.4 O2 saturated 2.4 mM phosphate buffer, containing 20 mM formate.
# OsO4 (or its product) catalyzes the decay of the superoxide ion radical. The superoxide ion radical (pKa=4.8) was formed by pulse-irradiation of oxygenated pH 7.2-7.4 buffer solutions. The solutions contained either 0.02 M formate and 2.4 mM phosphate, or 0.2 M 2-PrOH and 12 mM phosphate. In some experiment 5-10 μM diethylenetriaminepentaacetic acid (DTPA) or catalase (75 u/ml) were added. In the presence of either formate or 2-PrOH. All of the primary radicals formed by the radiation (Equation 3) are converted into O2.^− via Reactions 4-7 when formate is added, and by Reactions 4, 8-10, when 2-PrOH is added. In Equation 3 the values in parentheses are the radiation-chemical yields of the species, defined as the number of species produced per 100 eV of absorbed energy γ.
compound,measurement,setting,value
"CC(=O)OC[C@H]1O[C@@H]([S-])[C@H](OC(C)=O)[C@@H](OC(C)=O)[C@@H]1OC(C)=O.CCP(CC)CC.[Au+] [2,3,4,6-tetra-O-acetyl-1-thio-β-D-glucopyranosato-S (triethylphosphine)]",inhibition of the release of O2.- (in words),[1]; 10 μM concentration,completely inhibited
Cc1cccc[n+]1[O-] [2-picoline N-oxide],"k, reaction with .OH radicals",[2],3e+09 M⁻¹ s⁻¹
Cc1ccc[n+]([O-])c1 [3-picoline N-oxide],"k, reaction with .OH radicals",[2],3e+09 M⁻¹ s⁻¹
Cc1cc[n+]([O-])cc1 [4-picoline N-oxide],shortening of the half-life of CO3.-,"[3]; 2 mM, 3 μM CO3.-",about 50%
same,rate constant of the reaction with CO3.-,[3]; pH 10.0,about 3×10^4 M^−1s^−1
same,"k, reaction with .OH radicals",[2],3e+09 M⁻¹ s⁻¹
"CN(C)CCCN1CCC2(C[CH2][Ge]([CH3])([CH3])[CH2]C2)C1 [(N,N-dimethylaminopropyl)-2-aza-8,8-dimethyl-8-germanospiro-(4,5)-decane]",inhibition of the release of O2.- (in words),[1]; 10 μM concentration,completely inhibited
[Os+2].c1ccc(-c2ccccn2)nc1.c1ccc(-c2ccccn2)nc1.c1ccc(-c2ccccn2)nc1 [Os(bpy)3^2+],kcat (in words),[4],too low to be measured
Cc1ccnc(-c2cc(C)ccn2)c1.Cc1ccnc(-c2cc(C)ccn2)c1.Cc1ccnc(-c2cc(C)ccn2)c1.[Os+2] [Os(dimebpy)^2+],kcat (in words),[4],too low to be measured
"[Cl][Os]([Cl])[Cl] [OsCl3, OsCl3.6H2O]",kobs at the plateau,"[4]; 1.65 μM OsCl3, after 40 pulses",1700 s⁻¹
same,kcat at the plateau after repetitive pulsing,[4],1.1e+09 M⁻¹ s⁻¹
same,effect on rate of decay of O2.- in the first pulse,"[4]; 1.65 or 3.3 μM OsCl3, first pulse",only a minor increase
same,kobs at the plateau,"[4]; 3.3 OsCl3, after 40 pulses",3400 s⁻¹
[Cl][Os][Cl].c1cnc2c(c1)ccc1cccnc12.c1cnc2c(c1)ccc1cccnc12 [dichlorobis(phenathroline) osmium(II)],% inhibition of O2.- release,[1]; 10 μM concentration,24±4%
[O-][n+]1ccccc1 [pyridine N-oxide],"k, reaction with .OH radicals",[2],3e+09 M⁻¹ s⁻¹
K2OsCl6.2H2O Cl6 [OsCl6^2−],kcat at the plateau after repetitive pulsing,[4],4e+08 M⁻¹ s⁻¹
bis(bipyridyl) dichloroosmium(II),% inhibition of O2.- release,[1]; 10 μM concentration,2±2%
octamminodinitrato-(μ-nitrido)-diosmium trinitrate,% inhibition of O2.- release,[1]; 100 μM concentration,29±6%
